Data set [1] has as its system THP-1 macrophage cell adhesion to bEND-3 endothelial cells. Description: Macrophage adhesion assay (LPS induced THP-1 adhesion to bEND-3 endothelial cells). It counts as cell-based. Particulars: FIG. 13. On the procedure: To determine the anti-inflammatory effects of ER-β NRBAs in vitro, a macrophage adhesion assay was performed. Macrophages adhere to endothelial cells due to elevated levels of pro-inflammatory cytokines. This principle was used in this assay to determine the effect of one of the ER-β NRBAs on bacterial lipopolysaccharide (LPS) induced THP-1 macrophage cell adhesion to bEND-3 endothelial cells.

For data set [2], the target named is ERβ ligand binding domain (Homo sapiens (Human), UniProt Q92731). Nature of the data set: Competitive [3H]-estradiol radioligand binding, ERβ (Example 21). Particulars: ratio between the binding constants of ER-α and ER-β. On the procedure:
(§1) ER binding affinity was determined via one of the following methods:
(§2) Briefly, the incubation mixture was filtered through a high affinity protein binding filter, and washed several times to remove any unbound radioactivity. The filter plate was air dried and sealed on the bottom.
(§3) Following incubation, plates were harvested onto GF/B filters and radioactivity was measured with a TopCount NXT (PerkinElmer). Nonspecific binding was subtracted from total binding to yield specific binding.

Data set [3] has as its target ERα ligand binding domain (Homo sapiens (Human), UniProt P03372). Nature of the data set: Competitive [3H]-estradiol radioligand binding, ERα (Example 21). As to the method: as §1, §2, §3
The test system of another data set is ARPE-19 cells. Nature of the data set: Fluorescent detection of intracellular ROS in ARPE-19 cells (tBH oxidative stress). Conditions: 150 μM tBH, FIG. 20B.
The target of data set [4] is T1, ER-α (Rattus norvegicus (Rat), UniProt P06211). Nature of the data set: Transient transfection and reporter gene assay, ER-α, HEK-293 cells (Example 22A). Format: cell-based. Conditions: ERE-LUC. As to the method:
Human estrogen receptors (ER-α and ER-β) were cloned from prostate cDNA into a pCR3.1 plasmid vector backbone. PGC-1 was cloned into mammalian two hybrid vector pACT. ER-β H475 was mutated to alanine using site-directed mutagenesis. Sequencing was performed to determine the absence of any non specific mutations. SHP promoter (−572 to +10) (26) was cloned into pGL3 basic LUC reporter vector and human FXR was cloned into pCR3.1. HEK-293 cells were plated at 100,000 cells per well of a 24 well plate in […] (DMEM)+5% charcoal-stripped fetal bovine serum (csFBS). The cells were transfected using Lipofectamine (Invitrogen, Carlsbad, Calif.) with 0.25 μg ERE-LUC, 0.02 μg CMV-LUC (renilla luciferase) and 12.5 ng of rat ER-α or 25 ng rat ER-β. […] Luciferase assays were performed 48 hrs after transfection.
To determine if the selectivity in ER binding also translated into ER-β-selective activity, transient transactivation assays were performed in HEK-293 cells transfected with plasmids encoding ER-α or ER-β and ERE-LUC. The cells were treated with varying concentrations of the ligands and their EC50 values were determined.

Data set [5] relates to Ishikawa endometrial cells. Nature of the data set: Ishikawa growth assay (alkaline phosphatase). It counts as cell-based. As to the method:
Ishikawa cells were plated at 15,000 cells/well in 24 well plates in DME:F12 (1:1)+5% csFBS w/o phenol red. The cells were maintained in this medium at 37° C. for 3 days. Medium was changed immediately prior to drug treatment for an additional 72 hrs. After 72 hrs, the cells were fixed with formalin and the amount of alkaline phosphatase (ALP) measured by para-nitrophenyl phosphate method.
This effect is one potential concern in the development of ER-α SERMs.

A further data set relates to PPAR-α. Nature of the data set: PPAR-α transactivation (PPRE-LUC) in HEK-293 cells co-transfected with ER-β. Particulars: FIG. 12A right panel. It counts as cell-based. On the procedure:
(§4) FIG. 12 depict the effect of ER-β ligand on PPAR-γ function through ligand binding domain (LBD). (A). HEK-293 cells were transfected with 0.25 μg PPRE-LUC, 5 ng CMV-renilla LUC and the indicated receptors (PPAR-γ and ER-β for the left panel and PPAR-α and ER-β for the right panel). The cells were treated 24 hrs after transfection with the indicated ligands and harvested 48 hrs after transfection and firefly luciferase activity was measured and normalized to renilla luciferase. (B). H475 in ER-β LBD is important for its function. H475 in ER-β LBD was mutated to alanine (A) using a site directed mutagenesis kit. Transactivation assay was performed as described in panel A in HEK-293 cells with a titration of ER-β ligands in wild type or ER-β H475A. (C). […] The cells were treated 24 hrs after transfection with the indicated ligands and harvested 48 hrs after transfection and firefly luciferase activity was measured and normalized to renilla luciferase. […] The cells were treated 24 hrs after transfection with the indicated ligands and harvested 48 hrs after transfection and firefly luciferase activity was measured and normalized to renilla luciferase. […] The cells were treated 24 hrs after transfection with the indicated ligands and harvested 48 hrs after transfection and firefly luciferase activity was measured and normalized to renilla luciferase. […]

In another data set the test system is PPAR-γ. Nature of the data set: PPAR-γ transactivation (PPRE-LUC) in HEK-293 cells co-transfected with ER-β. Format: cell-based. Conditions: FIG. 12A left panel. On the procedure:
as §4

In data set [6] the target is T1, ER-α. Format: cell-based. Conditions: 100 nM NRBA compared to 1 nM estradiol. On the procedure: COS or 293 cells were plated in DME without phenol red+10% cs FBS at 90,000 cells per well in 24 well plates, and were transfected with 0.25 μg of the vector “ERE-LUC”, where a firefly luciferase gene was driven by two estrogen responsive elements and 0.02 μg of the control CMV-LUC, Renilla where a luciferase gene was driven by a CMV promoter. […] All the receptors were cloned from rat tissue into the PCR3.1 vector backbone. Twenty four hours post transfection, cells were treated with compounds of this invention, estrogen, DHT, and other NRBAs or combinations thereof. Cells were harvested 48 hrs after transfection, and assayed for firefly and Renilla luciferase activity.

Data set [7] has as its system SHP promoter. Description: SHP promoter-luciferase in HEK-293 cells transfected with FXR and ER-β. Format: cell-based. Particulars: FXR and ER-β plasmids, FIG. 12E right panel. On the procedure: FIG. 12 depict the effect of ER-β ligand on PPAR-γ function through ligand binding domain (LBD). (A). HEK-293 cells were transfected with 0.25 μg PPRE-LUC, 5 ng CMV-renilla LUC and the indicated receptors (PPAR-γ and ER-β for the left panel and PPAR-α and ER-β for the right panel). The cells were treated 24 hrs after transfection with the indicated ligands and harvested 48 hrs after transfection and firefly luciferase activity was measured and normalized to renilla luciferase. (B). H475 in ER-β LBD is important for its function. H475 in ER-β LBD was mutated to alanine (A) using a site directed mutagenesis kit. Transactivation assay was performed as described in panel A in HEK-293 cells with a titration of ER-β ligands in wild type or ER-β H475A. (C). […] HEK-293 cells were transfected with 0.25 μg PPRE-LUC, 5 ng CMV-renilla LUC and 50 ng of the indicated receptors (PPAR-γ or PPAR-γ and wild type ER-β or PPAR-γ and ER-β H475A). The cells were treated 24 hrs after transfection with the indicated ligands and harvested 48 hrs after transfection and firefly luciferase activity was measured and normalized to renilla luciferase. (D). […] HepG2 cells were transfected with 0.25 μg PPRE-LUC, 5 ng CMV-renilla LUC, 0.5 μg PGC-1 or vector backbone and 100 ng of the indicated receptors (PPAR-γ or PPAR-γ and wild type ER-β or PPAR-γ and ER-β H475A for top panels and PPAR-α or PPAR-α and ER-β for bottom panel). The cells were treated 24 hrs after transfection with the indicated ligands and harvested 48 hrs after transfection and firefly luciferase activity was measured and normalized to renilla luciferase. (E). SHP-1 is an ER-β specific target gene. HEK-293 cells were transfected with 0.25 μg SHP-LUC, 5 ng CMV-renilla LUC and 50 ng of the indicated receptors (FXR and ER-α for the left panel and FXR and ER-β for the right panel). The cells were treated 24 hrs after transfection with the indicated ligands and harvested 48 hrs after transfection and firefly luciferase activity was measured and normalized to renilla luciferase. […]

In data set [8] the test system is high fat diet fed C57BL6 mice. Nature of the data set: High fat diet induced obesity model, prevention studies (studies 1 and 2).
Method: Study A: C57BL6 male mice of 4 weeks of age were divided into different groups and were fed with a normal or high fat diet (Harlan, Ind.).
For the treatment study (study 3), the animals were maintained on the irrespective diets for 6 weeks and then treated daily as indicated for an additional 18 weeks. Biweekly body weights and food consumption were measured. The animals were sacrificed at the end of each study and blood and tissues were collected for RNA isolation, histology and protein estimation.
Cholesterol and leptin concentrations were measured in serum using ELISA-based methods.
Histology was performed on cryosections and stained with oil 0 red.
Oral glucose tolerance tests (OGTT) were performed on 16-h fasted mice. Mice were given 150 mg glucose by oral gavage through a gastric tube.
Six week old C57BL/6 mice were randomized, based on body weight, into three study groups as shown in the Study Parameters Table below.
The mice were treated for 12 weeks. Twice weekly, the body weight and feed consumption were measured.
A glucose tolerance test was also performed at the completion of the study by administering 150 mg glucose orally to the mice and measuring blood glucose levels at 0, 15, 30 and 60 minutes post glucose administration.
At sacrifice, the mice organ weights were measured and collected for histology, gene expression and protein expressions. Blood was collected for serum marker determination (cholesterol, glucose, leptin).
Dual energy X-ray absorptiometry (DEXA) was performed to measure the body composition in Study 1.
An MRI scan was performed at the beginning of the study, after 6 weeks and at the completion of the study.
Data set [9] relates to SHP promoter. Nature of the data set: SHP promoter-luciferase in HEK-293 cells transfected with FXR and ER-α. Format: cell-based. Particulars: FIG. 12E left panel. On the procedure: as §4
Setting [10] is: Brown Adipose Tissue, vs high fat diet vehicle, >2-fold, p<0.01.
Setting [11] is: Liver, vs high fat diet vehicle, >2-fold, p<0.01.
[12] abbreviates: White Adipose Tissue, vs high fat diet vehicle, >2-fold, p<0.01.
[13] abbreviates: high fat diet, 30 mg/kg/day s.c., 12 weeks.
Setting [14] is: high fat diet, 30 mg/kg/day s.c., 12 weeks, FIG. 7.
The mark [15] stands for this setting: high fat diet, 30 mg/kg/day s.c., 12 weeks, study 1.
[16] abbreviates: high fat diet, 30 mg/kg/day s.c., Study 2.

The structures appear in SMILES notation. “Also recorded” adds a separate entry of the source.

By Ki is commonly meant a measure of affinity in units of concentration, obtained from inhibition or displacement. Low values mean a stronger hold on the target, high ones a looser hold on the target.

ERβ ligand binding domain, sequence (Q92731 264-498, species assumed): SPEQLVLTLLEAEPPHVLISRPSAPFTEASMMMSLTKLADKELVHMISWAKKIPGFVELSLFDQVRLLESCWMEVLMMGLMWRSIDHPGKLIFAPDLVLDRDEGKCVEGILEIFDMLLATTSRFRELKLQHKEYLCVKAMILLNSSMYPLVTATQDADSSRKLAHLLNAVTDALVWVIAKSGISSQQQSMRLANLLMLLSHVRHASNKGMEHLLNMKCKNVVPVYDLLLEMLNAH
ERα ligand binding domain, sequence (P03372 whole entry, looked up, species assumed, the tested form may be a part): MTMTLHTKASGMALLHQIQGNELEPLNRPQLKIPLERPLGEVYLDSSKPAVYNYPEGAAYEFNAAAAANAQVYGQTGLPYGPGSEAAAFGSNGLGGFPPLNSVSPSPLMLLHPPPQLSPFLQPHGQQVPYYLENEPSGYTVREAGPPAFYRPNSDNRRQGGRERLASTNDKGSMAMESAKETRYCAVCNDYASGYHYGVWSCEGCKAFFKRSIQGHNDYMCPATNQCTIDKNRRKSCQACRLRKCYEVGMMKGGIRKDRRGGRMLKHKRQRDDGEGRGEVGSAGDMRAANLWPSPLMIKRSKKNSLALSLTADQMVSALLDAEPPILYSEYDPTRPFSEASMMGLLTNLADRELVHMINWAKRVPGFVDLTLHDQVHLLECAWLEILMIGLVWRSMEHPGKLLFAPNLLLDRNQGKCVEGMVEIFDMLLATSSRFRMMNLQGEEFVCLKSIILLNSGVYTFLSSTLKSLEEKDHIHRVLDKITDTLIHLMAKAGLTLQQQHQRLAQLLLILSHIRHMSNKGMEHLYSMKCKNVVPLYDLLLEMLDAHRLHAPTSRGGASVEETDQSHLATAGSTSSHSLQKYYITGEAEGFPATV

For the compound `O=c1c2c(O)cc(O)cc2c(Cl)cn1-c1ccc(O)cc1` [Compound 12y, 4-chloro-6,8-dihydroxy-2-(4-hydroxyphenyl)isoquinolin-1(2H)-one], in [1], the “adhesion of 3H labeled THP-1 cells to bEND-3 cells” value is reported as “significantly inhibited the adhesion”. The “Ki Ratio (ER-α/ER-β)” value in data set [2] was 11. This compound also registered a Ki in [3] of 36 nM. The “prevention of ROS formation / oxidative damage” value in the data set with ARPE-19 cells is “protected ARPE-19 cells from oxidative damage”.
Take `N#Cc1cn(-c2ccc(O)cc2)c(=O)c2c(O)cc(O)cc12` [Compound 14m, 6,8-dihydroxy-2-(4-hydroxyphenyl)-1-oxo-1,2-dihydroisoquinoline-4-carbonitrile]: the “function at ER-α in transactivation” value on ER-α [4] was “agonists”. In addition, the Ishikawa cell proliferation result in data set [5] (FIG. 3C) is recorded as “weakly induce”. The “concentration at which proliferation of Ishikawa cells was induced” value in [5] (highest concentration tested, ALP assay, 72 hrs) was 1 µM. Moreover, the “WY14643 induced PPAR-α transactivation” value in the data set on PPAR-α was “did not affect”. Moreover, in the data set with PPAR-γ, the “troglitazone-induced PPAR-γ activity” value is on record as “partially inhibited”. For the same compound, the “Estradiol activity at 100 nM, ER-α” value at ER-α [6] is 49%. In the data set with SHP promoter [7], the SHP activity result is “neither of the ligands activated SHP”. Moreover, the “prevention of body weight increase caused by the high fat diet” value in [8] (30 mg/kg/day s.c., 12 weeks, Study 2) is reported as “more than 50%”. The “high fat diet increase in expression of genes that promote lipogenesis (LPL, FASN, SREBP-1, PLTP, Dhcr24)” value in [8] (BAT and WAT) is on record as “reversed”. Moreover, in [8] (setting [10]), the “Ddit3 (DNA damage inducible transcript III) gene expression” value was “Decrease”, the “Dhcr24 (dehydrocholesterol reductase) gene expression” value is on record as “Decreased”, the “ER-β (Estrogen receptor β) gene expression” value is “Increased” and the “GPx-3 (glutathione peroxidase) gene expression” value is reported as “Increase”. In addition, in data set [8] (setting [10]), the “LPL (lipoprotein lipase) gene expression” value is listed as “Decrease”, the “PLTP (phospholipid transfer protein) gene expression” value is listed as “Decrease” and the “UCP-1 (uncoupled protein-1) gene expression” value is “Increased”. Besides, in data set [8] (setting [11]), the “CIDEA (Cell death inducing DNA fragmentation factor) gene expression” value was “Decrease” and the “GPx-3 (glutathione peroxidase) gene expression” value is reported as “Increase”. Further, in data set [8] (setting [12]), the “Ddit3 (DNA damage inducible transcript III) gene expression” value is reported as “Decrease”, the “FASN (fatty acid synthase) gene expression” value is recorded as “Decrease”, the “LPL (lipoprotein lipase) gene expression” value is “Decrease” and the “SREBP1 (Sterol regulatory element binding protein 1) gene expression” value is recorded as “Decrease”. In [8] (setting [13]), the “bone mineral content (BMC), DEXA” value is reported as “prevented the loss in BMC”; the “serum cholesterol increase by high fat diet” value is listed as “significantly reversed”; the “serum leptin increase by high fat diet” value is recorded as “significantly reversed”. For the same compound, the “white adipose tissue (WAT) weight” value in data set [8] (high fat diet, 30 mg/kg/day s.c., 12 weeks, FIG. 6B) is reported as “significantly reduced”. For the same compound, in data set [8] (setting [14]), the gastrocnemius muscle weight entry is on record as “increased gastrocnemius muscle weight” and the “white adipose tissue (WAT) weight” value is recorded as “prevented the increase in the WAT weight; also recorded: comparably decreased WAT weight”. In addition, in data set [8] (setting [15]), the “body fat (DEXA)” value is on record as “suppressing fat mass formation”; the “reduction in body weight compared to high fat diet and vehicle” value was “greater than 85%”; the “weight gained more than normal diet-fed controls” value was 5%. For the same compound, the “serum macrophage inflammatory protein-1β (MIP-1β) increase by high fat diet” value in [8] (high fat diet, 30 mg/kg/day s.c., FIG. 6F) is listed as “completely reversed”. Moreover, the “accumulation of fat in the liver (oil red staining)” value in [8] (high fat diet, 30 mg/kg/day s.c., FIG. 8) was “attenuated the accumulation of lipid droplets in the liver; also recorded: completely prevented the accumulation of fat in the liver”. In data set [8] (setting [16]), the “fat mass (MRI)” value is “reduce fat mass”, the “lean mass (MRI)” value is “increase muscle mass; also recorded: increased the lean mass” and the “prevention of the increase in body fat (MRI)” value was “more than 50%”. The “total caloric intake (feed consumption)” value in data set [8] (high fat diet, 30 mg/kg/day s.c., study 1) is reported as “did not affect total caloric intake”. Besides, the “blood glucose levels, glucose tolerance test” value in data set [8] (high fat diet, 30 mg/kg/day s.c., 150 mg glucose orally) is reported as “not statistically different from the normal diet controls”. Besides, the testes weights entry in data set [8] (high fat diet, 12 weeks, FIG. 9A) was “not altered”. In addition, in data set [8] (high fat diet, 12 weeks, FIG. 9B), the serum testosterone levels entry is “did not affect; also recorded: not altered”. The “serum follicle stimulating hormone (FSH)” value in data set [8] (high fat diet, 12 weeks, FIG. 9C) is “did not affect; also recorded: not altered”.
For the compound `CCCc1c(-c2ccc(O)cc2)nn(-c2ccc(O)cc2)c1-c1ccc(O)cc1` [PPT, 1,3,5-tris(4-hydroxyphenyl)-4-propyl-1H-pyrazole], the SHP activity result in the data set on SHP promoter [9] is recorded as “increased SHP activity”.

Values taken from US9623021B2, “Nuclear receptor binding agents” (GTX, Inc., priority 2007, dated 2017).
